Assay results: patent US20030232851A1, “Viral treatment” (The Procter & Gamble Company, priority 1999, published 2003)
Converted amounts (≈) assume the structure as drawn. “And” between values parts separate entries of the source, which are not always exact repeats. Identical values can stand only once.

Key:
HIV-1 protease = molecular target: T1, HIV-1 protease (Human immunodeficiency virus type 1 group M subtype B, UniProt P04585); experiment: Protease inhibition assay (fluorometric); assay type: biochemical; conditions: for Protease Inhibition, sample reading: sample 1, sample 2, hydrochloride salt
T1 construct: precludes use of the fluorometric HIV-1 protease assay; purchased Bachem
Description: Protease inhibition is evaluated using a fluorometric method. Enzyme (Bachem) is diluted to 116 μgm/ml in 50 mM NaOAC, 5 mM DTT, 2 mM EDTA, 10% glycerol (pH 5.0) and stored as 10 μl samples at −20° C., HIV protease substrates I (Molecular Probes) is diluted to a working concentration of 0.32 nmoles/μl. Enzyme (20 μl) and drug (20 μl) are added to each well of a microtiter plate as appropriate. Positive and negative controls are evaluated in parallel. Fluorescence is quantitated on Labsystems Fluroskan II using 355 nm/460 nm at 37° C. at time zero and at 30 minute intervals for 2 hours. In instances where autofluorescence precludes use of the fluorometric HIV-1 protease assay or confirmation of a result is required, an HPLC based protease assay can be employed.

HIV-1 integrase = HIV-1 integrase (Human immunodeficiency virus type 1 group M subtype B, UniProt P04585); experiment: HIV-1 integrase inhibition assay; assay type: biochemical; design: HIV-1 Integrase Inhibition, sample reading / HIV-1 Integrase Inhibition, mean: unit not given here; conditions: for HIV-1 Integrase Inhibition, sample reading: sample 1, sample 2, hydrochloride salt
From the text: A biochemical integrase assay described by Craigie et at (HIV, vol. 2: A practical Approach) Biochemistry, Molecular Biology and Drug Discovery, Ed. J. Kam 1995) to screen agents for their ability to inhibit HIV-1 integrase. In this system, a kinased oligonucleotide serves as the target of 3′ processing and the subsequent strand transfer reaction. The 3′ processing reaction involves the removal of 2 nucleotides from the 3′ ends of the substrate and this is followed by the strand transfer reaction in which the 3′ ends are joined to the exposed 5′ ends. The 20 μl reaction mixture contains 25 mM MOPS (pH 7.2), […] BSA, 10 mM β-mercaptoethanol, 10% glycerol, 7.5 mM MnCl2, 25 nM (7 ng) substrate (Oligo's Etc., Wilsonville, Oreg.) and 200 nM (128 ng) integrase (NIAID AIDS Research and Reference Reagent Program, Bethesda, Md.). The reaction proceeds at 37° C. for 1-2 hours and is terminated by the addition of 20 μl of sequencing stop solution (JSB Amersham, Arlington Heights, Ill.). The reaction products are visualized by autoradiography following electrophoresis in 15% polyacrylamide 6M Urea gel. The substrate migrates as a 30 mer, the product of 3′ processing migrates as an N-2 band and the strand transfer products migrate more slowly at various sizes larger than the substrate.

hepatitis B, HEPG22.2.15 = experiment: In vitro virus production test of hepatitis B, DNA copy number; assay type: cell-based
HEPG22.2.15 = experiment: Hepatitis B test: toxicity values; assay type: cell-based
vero cells = test system: vero cells; design: unit not given beside the values; conditions: African green monkey
Curvularia lunata = experiment: Anti-fungal activity (NCCLS M-27A based), Curvularia lunata; assay type: cell-based; conditions: growth inhibited or reduced at least 90%
Description: (§1) It was active against cryptococcus neoformans and curvularai lunata. The cidal activity for the C. neoformans is high enough that it is clear […] against this yeast. This test was conducted using a method based upon NCCLS reference method M-27A published in 1997. Solvent, medium and growth controls were set-up with the tests. Once these were read to validate the test performance, the QC fungi were read to insure they had expected results. These steps validated the test system. DMSO was used as a drug-chemical solvent. […] The 90% cut-off is necessary for azoles, which are static and not cidal. The FMC or cidal level was determined by sub-culturing a sample from each tube showing no growth.

Cryptococcus neoformans = experiment: Anti-fungal activity (NCCLS M-27A based), Cryptococcus neoformans; assay type: cell-based
Description: as §1

Structure (SMILES): Cl.c1csc(-c2nc3ncccc3[nH]2)c1 [2-(2-thienyl)-imidazolo [4,5-b]pyridine hydrochloride salt]
- Protease Inhibition, mean (HIV-1 protease; 1 nM): 26.3
- Protease Inhibition, sample reading (HIV-1 protease; 1 nM): 29.9 and 22.6
- Protease Inhibition, mean (HIV-1 protease; 10 nM): 35.0
- Protease Inhibition, sample reading (HIV-1 protease; 10 nM): 36.0 and 34.1
- Protease Inhibition, mean (HIV-1 protease; 100 nM): 84.8
- Protease Inhibition, sample reading (HIV-1 protease; 100 nM): 85.4 and 84.2
- Protease Inhibition, mean (HIV-1 protease; 1000 nM): 247.3
- Protease Inhibition, sample reading (HIV-1 protease; 1000 nM): 245.7 and 248.8
- EC50 (HIV-1 integrase): > 421 µM
- HIV-1 Integrase Inhibition, mean (HIV-1 integrase; 0.1 μg/ml): 9144
- HIV-1 Integrase Inhibition, sample reading (HIV-1 integrase; 0.1 μg/ml): 9338.5 and 8948.8
- HIV-1 Integrase Inhibition, mean (HIV-1 integrase; 1 μg/ml): 12194
- HIV-1 Integrase Inhibition, sample reading (HIV-1 integrase; 1 μg/ml): 11838.2 and 12550.7
- HIV-1 Integrase Inhibition, mean (HIV-1 integrase; 10 μg/ml): 12299
- HIV-1 Integrase Inhibition, sample reading (HIV-1 integrase; 10 μg/ml): 10848.3 and 13750.3
- HIV-1 Integrase Inhibition, mean (HIV-1 integrase; 100 μg/ml): 10570
- HIV-1 Integrase Inhibition, sample reading (HIV-1 integrase; 100 μg/ml): 10212.5 and 10928.4

Structure (SMILES): Nc1ccn([C@@H]2CS[C@H](CO)O2)c(=O)n1 [3TC, lamivudine]
- DNA Copy Number, % virus control (hepatitis B, HEPG22.2.15; 0.0032 μg/ml): 97.8%
- DNA Copy Number, mean (hepatitis B, HEPG22.2.15; 0.0032 μg/ml): 280.4 per 3 μl
- DNA Copy Number, samples 1-3 (hepatitis B, HEPG22.2.15; 0.0032 μg/ml): 265.4 per 3 μl and 328.0 per 3 μl and 247.9 per 3 μl
- DNA Copy Number, % virus control (hepatitis B, HEPG22.2.15; 0.01 μg/ml): 87.8%
- DNA Copy Number, mean (hepatitis B, HEPG22.2.15; 0.01 μg/ml): 251.7 per 3 μl
- DNA Copy Number, samples 1-3 (hepatitis B, HEPG22.2.15; 0.01 μg/ml): 286.1 per 3 μl and 276.7 per 3 μl
- DNA Copy Number, % virus control (hepatitis B, HEPG22.2.15; 0.032 μg/ml): 80.4%
- DNA Copy Number, mean (hepatitis B, HEPG22.2.15; 0.032 μg/ml): 230.4 per 3 μl
- DNA Copy Number, samples 1-3 (hepatitis B, HEPG22.2.15; 0.032 μg/ml): 243.2 per 3 μl and 255.3 per 3 μl
- DNA Copy Number, % virus control (hepatitis B, HEPG22.2.15; 0.1 μg/ml): 24.2%
- DNA Copy Number, mean (hepatitis B, HEPG22.2.15; 0.1 μg/ml): 69.4 per 3 μl
- DNA Copy Number, samples 1-3 (hepatitis B, HEPG22.2.15; 0.1 μg/ml): 73.0 per 3 μl and 74.8 per 3 μl and 60.5 per 3 μl
- DNA Copy Number, % virus control (hepatitis B, HEPG22.2.15; 0.32 μg/ml): 13.1%
- DNA Copy Number, mean (hepatitis B, HEPG22.2.15; 0.32 μg/ml): 46.1 per 3 μl
- DNA Copy Number, samples 1-3 (hepatitis B, HEPG22.2.15; 0.32 μg/ml): 36.7 per 3 μl and 45.1 per 3 μl and 56.5 per 3 μl
- DNA Copy Number, % virus control (hepatitis B, HEPG22.2.15; 1 μg/ml): 1.4%
- DNA Copy Number, mean (hepatitis B, HEPG22.2.15; 1 μg/ml): 4.0 per 3 μl
- IC50 (hepatitis B, HEPG22.2.15; HepG2 2.2.15, first experiment): 0.089 µg/mL (≈ 0.388 µM)
- IC50 (hepatitis B, HEPG22.2.15; HepG2 2.2.15, replicate experiment): 0.021 µg/mL (≈ 0.0916 µM)
- Toxicity Values, % cell control (HEPG22.2.15; 0.0032 μg/ml): 90.8%
- Toxicity Values, mean (HEPG22.2.15; 0.0032 μg/ml): 1.137
- Toxicity Values, samples 1-3 (HEPG22.2.15; 0.0032 μg/ml): 1.009 and 1.173 and 1.230
- Toxicity Values, % cell control (HEPG22.2.15; 0.01 μg/ml): 84.6%
- Toxicity Values, mean (HEPG22.2.15; 0.01 μg/ml): 1.060
- Toxicity Values, samples 1-3 (HEPG22.2.15; 0.01 μg/ml): 1.001 and 1.081 and 1.099
- Toxicity Values, % cell control (HEPG22.2.15; 0.032 μg/ml): 94.3%
- Toxicity Values, mean (HEPG22.2.15; 0.032 μg/ml): 1.181
- Toxicity Values, samples 1-3 (HEPG22.2.15; 0.032 μg/ml): 1.074 and 1.153 and 1.316
- Toxicity Values, mean (HEPG22.2.15; 0.1 μg/ml): 1.190
- Toxicity Values, samples 1-3 (HEPG22.2.15; 0.1 μg/ml): 1.151 and 1.220 and 1.200
- Toxicity Values, % cell control (HEPG22.2.15; 0.32 μg/ml): 93.6%
- Toxicity Values, mean (HEPG22.2.15; 0.32 μg/ml): 1.172
- Toxicity Values, samples 1-3 (HEPG22.2.15; 0.32 μg/ml): 1.082 and 1.207 and 1.227
- Toxicity Values, % cell control (HEPG22.2.15; 1 μg/ml): 106.5%
- Toxicity Values, mean (HEPG22.2.15; 1 μg/ml): 1.334
- Toxicity Values, samples 1-3 (HEPG22.2.15; 1 μg/ml): 1.423 and 1.256 and 1.322
- TC50 (HEPG22.2.15; first experiment): > 1 µg/mL
- TC50 (HEPG22.2.15; replicate experiment): > 1 µg/mL

Structure (SMILES): Nc1nc2c(ncn2COCCO)c(=O)[nH]1 [Acyclovir]
- TC50 (vero cells): > 1

Structure (SMILES): C[C@@H]1[C@H](O)[C@@H](C)/C=C/C=C/C=C/C=C/C=C/C=C/C=C/[C@H](O[C@@H]2O[C@H](C)[C@@H](O)[C@H](N)[C@@H]2O)C[C@@H]2O[C@](O)(C[C@@H](O)C[C@@H](O)[C@H](O)CC[C@@H](O)C[C@@H](O)CC(=O)O[C@H]1C)C[C@H](O)[C@H]2C(=O)O [AmB, amphotericin B]
- MIC data (Curvularia lunata): 0.03 µg/mL (≈ 0.0325 µM)
- MFC data (Cryptococcus neoformans; cidal level): 1 µg/mL (≈ 1.08 µM)
- MIC data (Cryptococcus neoformans; growth inhibited or reduced at least 90%): 0.25 µg/mL (≈ 0.271 µM)
